How the values were obtained:
[1] = system: secreted IL-17 in peripheral blood mononuclear cells (PBMCs); experiment: Human IL-17 inhibition assay; format: cell-based; settings: PBMC, anti-CD3/anti-CD28, 72 h, read-out: IL17 IC50
Protocol: Peripheral blood mononuclear cells (PBMCs) were isolated from healthy volunteers and subjected to T cell polarization assay. Two million PBMCs were placed on anti-CD3 (Biolegend, US) coated 96-well plates and 1 μg/mL of anti-CD28 (Biolegend, US) was added along with RORγt inhibitors or the vehicle control and incubated at 37° C. and 5% CO2 for 72 h. At the end of incubation time, the supernatant was collected and analyzed for secreted IL-17 using sandwich enzyme immunoassay (Mabtech AB, Sweden). The results were analyzed using Graphpad Prism and the half-maximal inhibitory concentrations (IC50) of the test compounds were derived (Table 4).

full length human RORγt = molecular target: T1, full length human RORγt (Homo sapiens, UniProt P51449); experiment: 5×RORE based luciferase assay; format: cell-based; settings: COS-7 cells transfected with 5×RORE-Luc and hRORγt, 18-20 h treatment
T1 construct: full length human RORγt together in COS-7 cells; expressed in transfected cells; host or cells: COS-7
T1 sequence (P51449 1-497 isoform P51449-2): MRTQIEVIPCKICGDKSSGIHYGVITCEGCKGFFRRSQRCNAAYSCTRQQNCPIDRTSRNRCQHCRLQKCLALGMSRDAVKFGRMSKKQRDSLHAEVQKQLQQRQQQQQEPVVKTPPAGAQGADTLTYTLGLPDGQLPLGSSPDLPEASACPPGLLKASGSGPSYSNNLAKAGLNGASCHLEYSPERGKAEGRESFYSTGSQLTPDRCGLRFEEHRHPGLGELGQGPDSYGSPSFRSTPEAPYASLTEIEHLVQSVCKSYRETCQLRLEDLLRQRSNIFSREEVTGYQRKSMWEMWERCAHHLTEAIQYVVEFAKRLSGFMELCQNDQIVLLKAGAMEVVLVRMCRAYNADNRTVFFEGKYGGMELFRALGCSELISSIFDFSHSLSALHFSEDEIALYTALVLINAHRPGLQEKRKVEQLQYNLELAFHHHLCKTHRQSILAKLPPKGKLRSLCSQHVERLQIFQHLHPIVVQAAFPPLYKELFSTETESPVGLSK
Protocol: Human RORγt (hRORγt) inhibitors were screened in RORE (RORγt Response Element) based Luciferase assay by transient transfection of 5×RORE (5 tandem repeats of RORγt Response Element) and full length human RORγt together in COS-7 cells. COS-7 cells were maintained as monolayer in complete DMEM (High Glucose) medium in presence of 2 mM Glutamin and 1× Sodium Pyruvate. Day before transfection, 15000 cells were seeded in 96 well cell culture plate in 100 μl antibiotic free medium and incubated at 37° C. in 5% CO2 containing humidified chamber O/N. Prior to transfection, cells were fed with fresh complete growth medium and incubated until the addition of transfection complex. Transfection complex for the required numbers of wells were prepared from pGL2-promoter-5×RORE-Luc plasmid, pcDNA3.1 (+)-hRORγt expression plasmid, pβ-GAL plasmid (transfection control), and Lipofectamine 3000 (Invitrogen). 50 μl of transfection complex were added in 100 μl of complete medium to respective wells, mixed gently and plate was incubated for 5-6 h at 37° C. in 5% CO2 containing humidified chamber. After 5 h of transfection, content of the wells were aspirated and cells were treated with increasing concentration of RORγt inverse agonist in medium devoid of serum with a final DMSO concentration of 0.2% for 18-20 h at 37° C. in 5% CO2 containing humidified chamber. Next day, cells were lysed and the lysates were assayed for luciferase and β-GAL activity using Promega's luciferase assay system and an in-house made β-GAL assay buffer respectively. Luciferase signals were normalized with β-GAL and % activity was determined with respect to that of 10 nM control ligand.
IC50 of selected compounds were then determined by nonlinear regression analysis of % activity, plotted against compound concentration (Table 4).

Row | IC50 (full length human RORγt) [nM] | Compound | IC50 [1] [nM]
1 | 22.5 | CCS(=O)(=O)c1ccc(CC(=O)Nc2cc(Cl)c(C3(c4ncc(-c5ccc(Cl)cc5)o4)CC3)c(Cl)c2)cc1 [Example 39, N-(3,5-dichloro-4-(1-(5-(4-chlorophenyl)oxazol-2-yl)cyclopropyl)phenyl)-2-(4-(ethylsulfonyl)phenyl)acetamide] | 22
2 | 0.76 | CCS(=O)(=O)c1ccc(CC(=O)Nc2cc(Cl)c(C3(c4noc(-c5ccc(F)cc5)n4)CC3)c(Cl)c2)nc1 [Example 41, N-(3,5-dichloro-4-(1-(5-(4-fluorophenyl)-1,2,4-oxadiazol-3-yl)cyclopropyl)phenyl)-2-(5-(ethylsulfonyl)pyridin-2-yl)acetamide] | 15.5
3 | 10.3 | CCS(=O)(=O)c1ccc(CC(=O)Nc2cc(Cl)c(C3(c4noc(-c5ccc(F)c(F)c5)n4)CC3)c(Cl)c2)nc1 [Example 44, N-(3,5-dichloro-4-(1-(5-(3,4-difluorophenyl)-1,2,4-oxadiazol-3-yl)cyclopropyl)phenyl)-2-(5-(ethylsulfonyl)pyridin-2-yl)acetamide] | 43
4 | 12.9 | CCS(=O)(=O)c1ccc(CC(=O)Nc2cc(Cl)c(C3(c4noc(-c5ccc(F)cc5Cl)n4)CC3)c(Cl)c2)nc1 [Example 46, N-(3,5-dichloro-4-(1-(5-(2-chloro-4-fluorophenyl)-1,2,4-oxadiazol-3-yl)cyclopropyl)phenyl)-2-(5-(ethylsulfonyl)pyridin-2-yl)acetamide] | 17.1
5 | 10.1 | CCS(=O)(=O)c1ccc(CC(=O)Nc2cc(Cl)c(C3(c4noc(-c5ccc(F)c(Cl)c5)n4)CC3)c(Cl)c2)nc1 [Example 47, N-(3,5-dichloro-4-(1-(5-(3-chloro-4-fluorophenyl)-1,2,4-oxadiazol-3-yl)cyclopropyl)phenyl)-2-(5-(ethylsulfonyl)pyridin-2-yl)acetamide] | 17.9
6 | 10.5 | CCS(=O)(=O)c1ccc(CC(=O)Nc2cc(Cl)c(C3(c4noc(-c5ccc(Cl)c(Cl)c5)n4)CC3)c(Cl)c2)nc1 [Example 48, N-(3,5-dichloro-4-(1-(5-(3,4-dichlorophenyl)-1,2,4-oxadiazol-3-yl)cyclopropyl)phenyl)-2-(5-(ethylsulfonyl)pyridin-2-yl)acetamide] | 38.9
7 | 4.7 | CCS(=O)(=O)c1ccc(CC(=O)Nc2cc(Cl)c(C3(c4noc(-c5ccc(Cl)cc5Cl)n4)CC3)c(Cl)c2)nc1 [Example 49, N-(3,5-dichloro-4-(1-(5-(2,4-dichlorophenyl)-1,2,4-oxadiazol-3-yl)cyclopropyl)phenyl)-2-(5-(ethylsulfonyl)pyridin-2-yl)acetamide] | 17
8 | 14.5 | CCS(=O)(=O)c1ccc(CC(=O)Nc2cc(Cl)c(C3(c4noc(-c5ccc(Cl)cc5)n4)CC3)c(Cl)c2)nc1 [Example 50, N-(3,5-dichloro-4-(1-(5-(4-chlorophenyl)-1,2,4-oxadiazol-3-yl)cyclopropyl)phenyl)-2-(5-(ethylsulfonyl)pyridin-2-yl)acetamide] | 30
9 | 12.1 | CCS(=O)(=O)c1ccc(CC(=O)Nc2cc(Cl)c(C3(c4noc(-c5cccc(Cl)c5)n4)CC3)c(Cl)c2)nc1 [Example 51, N-(3,5-dichloro-4-(1-(5-(3-chlorophenyl)-1,2,4-oxadiazol-3-yl)cyclopropyl)phenyl)-2-(5-(ethylsulfonyl)pyridin-2-yl)acetamide] | 16
10 | 1.9 | CCS(=O)(=O)c1ccc(CC(=O)Nc2cc(Cl)c(C3(c4noc(-c5ccc(C#N)cc5)n4)CC3)c(Cl)c2)nc1 [Example 53, N-(3,5-dichloro-4-(1-(5-(4-cyanophenyl)-1,2,4-oxadiazol-3-yl)cyclopropyl)phenyl)-2-(5-(ethylsulfonyl)pyridin-2-yl)acetamide] | 48
11 | 3.4 | CCS(=O)(=O)c1ccc(CC(=O)Nc2cc(Cl)c(C3(c4nc5ccc(F)cc5o4)CC3)c(Cl)c2)nc1 [Example 58, N-(3,5-dichloro-4-(1-(6-fluorobenzo[d]oxazol-2-yl)cyclopropyl)phenyl)-2-(5-(ethylsulfonyl)pyridin-2-yl)acetamide] | 23.3
12 | 9.2 | CCS(=N)(=O)c1ccc(CC(=O)Nc2cc(Cl)c(C3(c4noc(-c5ccc(F)cc5)n4)CC3)c(Cl)c2)cc1 (centres unmarked) [Example 61, N-(3,5-dichloro-4-(1-(5-(4-fluorophenyl)-1,2,4-oxadiazol-3-yl)cyclopropyl)phenyl)-2-(4-(ethylsulfonimidoyl)phenyl)acetamide] | 35
13 | 11 | O=C(Cc1ccc(S(=O)(=O)NC2CC2)cc1)Nc1cc(Cl)c(C2(c3noc(-c4ccc(F)cc4)n3)CC2)c(Cl)c1 [Example 63, 2-(4-(N-cyclopropylsulfamoyl)phenyl)-N-(3,5-dichloro-4-(1-(5-(4-fluorophenyl)-1,2,4-oxadiazol-3-yl)cyclopropyl)phenyl)acetamide] | 18
14 | 15.9 | O=C(Cc1ccc(S(=O)(=O)NC2CC2)cc1)Nc1cc(Cl)c(C2(c3noc(-c4ccc(C(F)(F)F)cc4)n3)CC2)c(Cl)c1 [Example 64, 2-(4-(N-cyclopropylsulfamoyl)phenyl)-N-(3,5-dichloro-4-(1-(5-(4-(trifluoromethyl)phenyl)-1,2,4-oxadiazol-3-yl)cyclopropyl)phenyl)acetamide] | 63
15 | 2.4 | O=C(Cc1ccc(S(=O)(=O)NC2CC2)cc1)Nc1cc(Cl)c(C2(c3nc4ccc(F)cc4o3)CC2)c(Cl)c1 [Example 65, 2-(4-(N-cyclopropylsulfamoyl)phenyl)-N-(3,5-dichloro-4-(1-(6-fluorobenzo[d]oxazol-2-yl)cyclopropyl)phenyl)acetamide] | 6
16 | 9.6 | CCS(=O)(=O)c1ccc(CC(=O)Nc2cc(Cl)c(C3(c4noc(-c5ccc(F)c(F)c5)n4)CC3)c(Cl)c2)cn1 [Example 68, N-(3,5-dichloro-4-(1-(5-(3,4-difluorophenyl)-1,2,4-oxadiazol-3-yl)cyclopropyl)phenyl)-2-(6-(ethylsulfonyl)pyridin-3-yl)acetamide] | 42.7
17 | 6.4 | CCS(=O)(=O)c1ccc(CC(=O)Nc2cc(Cl)c(C3(c4noc(-c5ccc(F)cc5F)n4)CC3)c(Cl)c2)cn1 [Example 69, N-(3,5-dichloro-4-(1-(5-(2,4-difluorophenyl)-1,2,4-oxadiazol-3-yl)cyclopropyl)phenyl)-2-(6-(ethylsulfonyl)pyridin-3-yl)acetamide] | 22.4
18 | 17 | CCS(=O)(=O)c1ccc(CC(=O)Nc2cc(Cl)c(C3(c4noc(-c5ccc(F)c(Cl)c5)n4)CC3)c(Cl)c2)cn1 [Example 70, N-(3,5-dichloro-4-(1-(5-(3-chloro-4-fluorophenyl)-1,2,4-oxadiazol-3-yl)cyclopropyl)phenyl)-2-(6-(ethylsulfonyl)pyridin-3-yl)acetamide] | 22
19 | 15.7 | CCS(=O)(=O)c1ccc(CC(=O)Nc2cc(Cl)c(C3(c4noc(-c5ccc(Cl)c(Cl)c5)n4)CC3)c(Cl)c2)cn1 [Example 71, N-(3,5-dichloro-4-(1-(5-(3,4-dichlorophenyl)-1,2,4-oxadiazol-3-yl)cyclopropyl)phenyl)-2-(6-(ethylsulfonyl)pyridin-3-yl)acetamide] | 32
